# Results taken from patent US9770026B2, “Substituted pyrimidine compound and uses thereof” (Shenyang Sinochem Agrochemicals R&D Co., Ltd., priority 2012, dated 2017).
# Tests used:
# rice blast = assay: microbe, parasite or virus in culture; format: cell-based; details: Pyricularia oryzae; for inhibition at 8.3 ppm: read-out: inhibition rate against rice blast, 8.3 ppm, in vitro; for inhibition at 25 ppm: read-out: inhibition rate against rice blast, 25 ppm, in vitro
# armyworm = assay: bioactivity test against armyworm, airbrush spray; format: in vivo
# corn rust = assay: protectant activity in vivo against corn rust; details: for pest or weed control at 6.25 µg/mL: read-out: control effect against corn rust (%), 6.25 mg/L; for pest or weed control at 6.25 µg/mL / pest or weed control at 25 µg/mL / pest or weed control at 100 µg/mL / pest or weed control at 400 µg/mL / pest or weed control at 0.4 µg/mL / pest or weed control at 1.6 µg/mL: protectant activity; for pest or weed control at 25 µg/mL: read-out: control effect against corn rust (%), 25 mg/L; for pest or weed control at 100 µg/mL: read-out: control effect against corn rust (%), 100 mg/L; for pest or weed control at 400 µg/mL: read-out: control effect against corn rust (%), 400 mg/L; for pest or weed control at 0.4 µg/mL: read-out: control effect against corn rust (%), 0.4 mg/L; for pest or weed control at 1.6 µg/mL: read-out: control effect against corn rust (%), 1.6 mg/L; for pest or weed control at 25 ppm: read-out: protectant activity against corn rust in vivo, 25 ppm
# carmine spider mite = assay: bioactivity test against carmine spider mite, airbrush spray; format: in vivo; details: for control against carmine spider mite: mortality after 72 hrs
# How it was run: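 Broadbean seedlings infested with adult mites were sprayed with compound (acetone/methanol stock diluted in 0.1% Tween 80 water) by airbrush at 0.7 kg/cm^2, 0.5 ml. Three replicates were run. Mortality was scored after 72 hrs.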
# Diamond back moth = assay: insecticidal activity against diamond back moth, airbrush spray; format: in vivo; details: mortality after 72 hrs; for control (test results against diamond back moth): 600 ppm
# How it was run: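 Airbrush leaf-disc spray test: both faces of 2 cm cabbage discs received 0.5 ml of test solution at 0.7 kg/cm^2. Solutions were made in acetone:methanol (1:1) and brought to concentration with 0.1% Tween 80 in water. Ten second-instar larvae per disc, triplicates, were held at 25° C and 60˜70% R.H., with mortality recorded at 72 hrs.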
# wheat powdery mildew = assay: protectant activity in vivo against wheat powdery mildew; details: for pest or weed control at 1.6 µg/mL: read-out: control effect against wheat powdery mildew (%), 1.6 mg/L
# cucumber downy mildew = assay: protectant activity in vivo against cucumber downy mildew; details: for pest or weed control at 50 ppm: read-out: protectant activity against cucumber downy mildew in vivo, 50 ppm
# [1] = tested on: Green peach aphids (Myzus Persicae Sulzer); assay: bioactivity test against green peach aphid, airbrush foliar spray; format: in vivo; details: for Insecticidal activity against peach aphid (%): contrastive test
# How it was run: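 Aphids (15-30 per cabbage leaf disc) on moist filter paper were airbrush-sprayed at 10 psi, 0.5 mL, with compound from acetone:methanol (1:1) diluted in water with 0.1% tween 80. Held at 25±1 C, 60±5% RH; survivors counted after 48 hrs to give death rates.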
# [2] = Triticum aestivum, 168 h, protectant activity
# [3] = 10 ppm, death rate after 48 hrs
# [4] = 100 ppm, death rate after 48 hrs
# [5] = 600 ppm, death rate after 48 hrs
structure (smiles),measurement,setting,value
"Cc1c(Cl)c(NCCc2ccc(Oc3ccc(C(F)(F)F)cn3)cc2)nc[n+]1CC(=O)c1ccc(Cl)cc1 [CK49, reference compound]",inhibition at 8.3 ppm,rice blast,0%
same,inhibition at 25 ppm,rice blast,< 50%
same,pest or weed control at 600 µg/mL,"armyworm; 72 h, 600 mg/L, read-out: Insecticidal activity against armyworm (%)",17%
same,pest or weed control at 6.25 µg/mL,"corn rust; Zea mays, 168 h",0%
same,pest or weed control at 25 µg/mL,"corn rust; Zea mays, 168 h",0%
same,pest or weed control at 100 µg/mL,"corn rust; Zea mays, 168 h",30%
same,pest or weed control at 400 µg/mL,"corn rust; Zea mays, 168 h",85%
Cc1ncnc(NCCc2ccc(Oc3ccc(C(F)(F)F)cn3)cc2)c1Cl [Compound I-22],Insecticidal activity against carmine spider mite (% ),carmine spider mite; 5 mg/L,59%
same,Insecticidal activity against carmine spider mite (% ),"carmine spider mite; 10 mg/L, contrastive test",74%
same,Insecticidal activity against carmine spider mite (% ),"carmine spider mite; 100 mg/L, contrastive test",100%
same,Insecticidal activity against carmine spider mite (% ),"carmine spider mite; 600 mg/L, contrastive test",100%
same,control against carmine spider mite,carmine spider mite; 100 ppm,100%
same,control against carmine spider mite,carmine spider mite; 600 ppm,100%
same,control (test results against diamond back moth),Diamond back moth,100%
same,protectant activity against wheat powdery mildew in vivo,wheat powdery mildew; 6.25 ppm,100%
same,protectant activity against wheat powdery mildew in vivo,wheat powdery mildew; 100 ppm,100%
same,pest or weed control at 1.6 µg/mL,wheat powdery mildew; [2],15%
same,pest or weed control at 6.25 µg/mL,"wheat powdery mildew; Triticum aestivum, 168 h, read-out: control effect against wheat powdery mildew (%), 6.25 mg/L, protectant activity",100%
same,pest or weed control at 25 µg/mL,"wheat powdery mildew; Triticum aestivum, 168 h, read-out: control effect against wheat powdery mildew (%), 25 mg/L, protectant activity",100%
same,pest or weed control at 100 µg/mL,"wheat powdery mildew; Triticum aestivum, 168 h, read-out: control effect against wheat powdery mildew (%), 100 mg/L, protectant activity",100%
same,pest or weed control at 400 µg/mL,"wheat powdery mildew; Triticum aestivum, 168 h, read-out: control effect against wheat powdery mildew (%), 400 mg/L, protectant activity",100%
same,pest or weed control at 25 ppm,"wheat powdery mildew; Triticum aestivum, 168 h, read-out: protectant activity against wheat powdery mildew in vivo, 25 ppm",100%
same,pest or weed control at 400 ppm,"wheat powdery mildew; Triticum aestivum, 168 h, read-out: protectant activity against wheat powdery mildew in vivo, 400 ppm",100%
same,inhibition at 8.3 ppm,rice blast,80 to 99%
same,protectant activity against cucumber downy mildew in vivo,cucumber downy mildew; 100 ppm,100%
same,pest or weed control at 3.125 µg/mL,"cucumber downy mildew; Cucumis sativus, 168 h, read-out: control effect against cucumber downy mildew (%), 3.125 mg/L, protectant activity",85%
same,pest or weed control at 6.25 µg/mL,"cucumber downy mildew; Cucumis sativus, 168 h, read-out: control effect against cucumber downy mildew (%), 6.25 mg/L, protectant activity",100%
same,pest or weed control at 12.5 µg/mL,"cucumber downy mildew; Cucumis sativus, 168 h, read-out: control effect against cucumber downy mildew (%), 12.5 mg/L, protectant activity",100%
same,pest or weed control at 25 µg/mL,"cucumber downy mildew; Cucumis sativus, 168 h, read-out: control effect against cucumber downy mildew (%), 25 mg/L, protectant activity",100%
same,pest or weed control at 50 µg/mL,"cucumber downy mildew; Cucumis sativus, 168 h, read-out: control effect against cucumber downy mildew (%), 50 mg/L, protectant activity",100%
same,pest or weed control at 100 µg/mL,"cucumber downy mildew; Cucumis sativus, 168 h, read-out: control effect against cucumber downy mildew (%), 100 mg/L, protectant activity",100%
same,pest or weed control at 400 µg/mL,"cucumber downy mildew; Cucumis sativus, 168 h, read-out: control effect against cucumber downy mildew (%), 400 mg/L, protectant activity",100%
same,pest or weed control at 6.25 ppm,"cucumber downy mildew; Cucumis sativus, 168 h, read-out: protectant activity against cucumber downy mildew in vivo, 6.25 ppm",100%
same,pest or weed control at 12.5 ppm,"cucumber downy mildew; Cucumis sativus, 168 h, read-out: protectant activity against cucumber downy mildew in vivo, 12.5 ppm",100%
same,pest or weed control at 25 ppm,"cucumber downy mildew; Cucumis sativus, 168 h, read-out: protectant activity against cucumber downy mildew in vivo, 25 ppm",100%
same,pest or weed control at 50 ppm,"cucumber downy mildew; Cucumis sativus, 168 h",100%
same,pest or weed control at 400 ppm,"cucumber downy mildew; Cucumis sativus, 168 h, read-out: protectant activity against cucumber downy mildew in vivo, 400 ppm",100%
same,Insecticidal activity against peach aphid (%),[1]; 1.25 mg/L,100%
same,Insecticidal activity against peach aphid (%),[1]; 2.5 mg/L,100%
same,Insecticidal activity against peach aphid (%),[1]; 5 mg/L,100%
same,Insecticidal activity against peach aphid (%),[1]; 10 mg/L,100%
same,Insecticidal activity against peach aphid (%),[1]; 100 mg/L,100%
same,Insecticidal activity against peach aphid (%),[1]; 600 mg/L,100%
same,control (test results against green peach aphid),[1]; [3],100%
same,pest or weed control at 100 ppm,"[1]; Myzus persicae, foliar, 48 h, 100 ppm, death rate after 48 hrs",100%
same,pest or weed control at 600 ppm,"[1]; Myzus persicae, foliar, 48 h, 600 ppm, death rate after 48 hrs",100%
same,protectant activity against corn rust in vivo,corn rust; 6.25 ppm,100%
same,protectant activity against corn rust in vivo,corn rust; 100 ppm,100%
same,pest or weed control at 0.4 µg/mL,"corn rust; Zea mays, 168 h",20%
same,pest or weed control at 1.6 µg/mL,"corn rust; Zea mays, 168 h",50%
same,pest or weed control at 6.25 µg/mL,"corn rust; Zea mays, 168 h",100%
same,pest or weed control at 25 µg/mL,"corn rust; Zea mays, 168 h",100%
same,pest or weed control at 100 µg/mL,"corn rust; Zea mays, 168 h",100%
same,pest or weed control at 400 µg/mL,"corn rust; Zea mays, 168 h",100%
same,pest or weed control at 25 ppm,"corn rust; Zea mays, 168 h",100%
same,pest or weed control at 400 ppm,"corn rust; Zea mays, 168 h, read-out: protectant activity against corn rust in vivo, 400 ppm",100%
CCc1ncnc(NCCc2ccc(Oc3ccc(C(F)(F)F)cn3)cc2)c1Cl [Compound I-254],Insecticidal activity against carmine spider mite (% ),carmine spider mite; 2.5 mg/L,79%
same,Insecticidal activity against carmine spider mite (% ),carmine spider mite; 5 mg/L,93%
same,Insecticidal activity against carmine spider mite (% ),"carmine spider mite; 10 mg/L, contrastive test",97%
same,Insecticidal activity against carmine spider mite (% ),"carmine spider mite; 100 mg/L, contrastive test",100%
same,Insecticidal activity against carmine spider mite (% ),"carmine spider mite; 600 mg/L, contrastive test",100%
same,control against carmine spider mite,carmine spider mite; 10 ppm,100%
same,control against carmine spider mite,carmine spider mite; 100 ppm,100%
same,control against carmine spider mite,carmine spider mite; 600 ppm,100%
same,control (test results against diamond back moth),Diamond back moth,100%
same,pest or weed control at 100 ppm,"Diamond back moth; 72 h, 100 ppm, read-out: control (test results against diamond back moth)",100%
same,control effect against wheat powdery mildew (%),"wheat powdery mildew; 6.25 mg/L, protectant activity",100%
same,control effect against wheat powdery mildew (%),"wheat powdery mildew; 25 mg/L, protectant activity",100%
same,control effect against wheat powdery mildew (%),"wheat powdery mildew; 100 mg/L, protectant activity",100%
same,control effect against wheat powdery mildew (%),"wheat powdery mildew; 400 mg/L, protectant activity",100%
same,protectant activity against wheat powdery mildew in vivo,wheat powdery mildew; 100 ppm,100%
same,protectant activity against wheat powdery mildew in vivo,wheat powdery mildew; 400 ppm,100%
same,pest or weed control at 1.6 µg/mL,wheat powdery mildew; [2],20%
same,inhibition at 25 ppm,rice blast,80 to 99%
same,protectant activity against cucumber downy mildew in vivo,cucumber downy mildew; 100 ppm,100%
same,protectant activity against cucumber downy mildew in vivo,cucumber downy mildew; 400 ppm,100%
same,pest or weed control at 50 ppm,"cucumber downy mildew; Cucumis sativus, 168 h",100%
same,Insecticidal activity against peach aphid (%),[1]; 1.25 mg/L,100%
same,Insecticidal activity against peach aphid (%),[1]; 2.5 mg/L,100%
same,Insecticidal activity against peach aphid (%),[1]; 5 mg/L,100%
same,Insecticidal activity against peach aphid (%),[1]; 10 mg/L,100%
same,Insecticidal activity against peach aphid (%),[1]; 100 mg/L,100%
same,Insecticidal activity against peach aphid (%),[1]; 600 mg/L,100%
same,control (test results against green peach aphid),"[1]; 5 ppm, death rate after 48 hrs",100%
same,control (test results against green peach aphid),[1]; [3],100%
same,control (test results against green peach aphid),[1]; [4],100%
same,control (test results against green peach aphid),[1]; [5],100%
same,pest or weed control at 2.5 ppm,"[1]; Myzus persicae, foliar, 48 h, 2.5 ppm, death rate after 48 hrs",100%
same,protectant activity against corn rust in vivo,corn rust; 100 ppm,100%
same,protectant activity against corn rust in vivo,corn rust; 400 ppm,100%
same,pest or weed control at 0.4 µg/mL,"corn rust; Zea mays, 168 h",40%
same,pest or weed control at 1.6 µg/mL,"corn rust; Zea mays, 168 h",95%
same,pest or weed control at 6.25 µg/mL,"corn rust; Zea mays, 168 h",100%
same,pest or weed control at 25 µg/mL,"corn rust; Zea mays, 168 h",100%
same,pest or weed control at 100 µg/mL,"corn rust; Zea mays, 168 h",100%
same,pest or weed control at 400 µg/mL,"corn rust; Zea mays, 168 h",100%
same,pest or weed control at 6.25 ppm,"corn rust; Zea mays, 168 h, read-out: protectant activity against corn rust in vivo, 6.25 ppm",100%
same,pest or weed control at 25 ppm,"corn rust; Zea mays, 168 h",100%
Cc1ncnc(NCCc2ccc(Oc3ccc(C(F)(F)F)cn3)cc2)c1Cl [Compound I-6763],control against carmine spider mite,carmine spider mite; 100 ppm,100%
same,control against carmine spider mite,carmine spider mite; 600 ppm,100%
same,protectant activity against wheat powdery mildew in vivo,wheat powdery mildew; 100 ppm,100%
same,protectant activity against wheat powdery mildew in vivo,wheat powdery mildew; 400 ppm,100%
same,inhibition at 25 ppm,rice blast,100%
same,control (test results against armyworm),"armyworm; 600 ppm, mortality after 72 h",100%
same,pest or weed control at 100 ppm,"armyworm; 72 h, 100 ppm, mortality after 72 h",100%
same,control (test results against green peach aphid),[1]; [3],100%
same,control (test results against green peach aphid),[1]; [4],100%
same,control (test results against green peach aphid),[1]; [5],100%
same,pest or weed control at 5 ppm,"[1]; Myzus persicae, foliar, 48 h, 5 ppm, death rate after 48 hrs",100%
same,protectant activity against corn rust in vivo,corn rust; 100 ppm,100%
same,protectant activity against corn rust in vivo,corn rust; 400 ppm,100%
